Series [1] concerns the target T1, CYP2E1 (Homo sapiens, UniProt P05181).
Series [2] deals with T1, CYP2E1. Description: in vitro. Conditions: microsomes, pH 7.4.
Series [3] deals with T2, CYP2E1 activity with HLM150 (Homo sapiens, UniProt P05181). In words: Steady-state inhibition kinetics of 4-nitrophenol oxidation, HLM150.
Series [4] concerns the target T3, CYP2E1 in human liver microsomes (HLM150) (Homo sapiens, UniProt P05181).
Series [5] addresses T1, CYP2E1. In words: in vitro. Conditions: recombinant enzyme, pH 7.4.
Series [6] has as its target T1, CYP2E1. In words: Steady-state inhibition kinetics of 4-nitrophenol oxidation, CYP2E1 Supersomes. Conditions: for Ki: Ki,ap, apparent, catalytic site, 95% CI in parentheses; for Mechanism: most probable inhibition mechanism among 10 models.
In series [7] the target is T1, CYP2E1. To be noted: human, recombinant enzyme, pH 7.4.
For series [8], the target named is T4, human CYP2E1 (Supersomes) (Homo sapiens, UniProt P05181).
T4 sequence (P05181 whole entry): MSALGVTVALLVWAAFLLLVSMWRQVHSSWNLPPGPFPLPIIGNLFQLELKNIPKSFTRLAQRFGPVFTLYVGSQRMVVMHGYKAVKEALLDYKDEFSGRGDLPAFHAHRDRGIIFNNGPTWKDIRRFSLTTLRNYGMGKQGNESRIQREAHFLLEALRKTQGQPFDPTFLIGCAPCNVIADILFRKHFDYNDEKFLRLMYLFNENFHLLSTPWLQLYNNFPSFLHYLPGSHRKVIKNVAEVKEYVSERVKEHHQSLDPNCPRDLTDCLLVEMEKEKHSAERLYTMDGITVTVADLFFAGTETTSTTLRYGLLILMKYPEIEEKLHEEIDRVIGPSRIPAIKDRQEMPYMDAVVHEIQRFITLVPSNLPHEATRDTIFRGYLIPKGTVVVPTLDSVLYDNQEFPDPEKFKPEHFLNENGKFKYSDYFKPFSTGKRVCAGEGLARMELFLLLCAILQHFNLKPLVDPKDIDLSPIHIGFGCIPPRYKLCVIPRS
Series [9] has as its target T1, CYP2E1. Conditions: human, microsomes, pH 7.4.
For series [10], the system named is CYP2E1. To be noted: CYP2E1 Supersomes; ref Hartman et al., 2012; cited from earlier work.
The target in series [11] is T4, human CYP2E1 (Supersomes). To be noted: recombinant enzyme, pH 7.4.
Series [12] concerns the target T2, CYP2E1 activity with HLM150.
Series [13] deals with T3, CYP2E1 in human liver microsomes (HLM150). Conditions: pH 7.4.

Where two headings read alike, the source gives them in different places.

T3 sequence (P05181 whole entry): as above
T1 sequence (P05181 whole entry): as above
T2 sequence (P05181 whole entry): as above

For the compound `C=Cc1ccc(O)cc1` [4-Vinylphenol, 4-vinylphenol], on CYP2E1 [1], the Mechanism entry is given as “Mixed cooperative substrate”. Further, the activity at 30 min at CYP2E1 [2] is 19%; at CYP2E1 [5], 16%. Further, the Ki was 61 µM in [3] and 47 µM on CYP2E1 [6]. Moreover, the IC50 (as a rule, the point on the concentration scale where inhibition reaches its midpoint) in series [4] stood at 38 µM. Also, on CYP2E1 [5], the IC50 at 30 min was 24 µM.
As to `c1ccc(C2CO2)cc1` (stereo not shown) [Styrene oxide, 8,9-styrene oxide], the activity at 30 min is 13% on CYP2E1 [7] and 28% at CYP2E1 [9]. The IC50 in series [8] was 55 µM; in [4], 150 µM. The Ki came to 160 µM in series [3] and 110 µM at CYP2E1 [6]. For the same compound, the Mechanism result on CYP2E1 [6] is given as “Mixed cooperative substrate”.
`C=Cc1ccccc1` [Styrene, styrene]: the activity at 30 min at CYP2E1 [7] was found to be 11%; on CYP2E1 [9], 20%. For the same compound, the IC50 came out at 75 µM in series [8] and 45 µM in series [4]. Besides, the “Ks (high affinity apparent binding constant during styrene metabolism)” value in the series on CYP2E1 [10] was 110 µM. Also, the Ki came out at 18 µM in series [3] (Ki,ap, HLM150, apparent, catalytic site, 95% CI in parentheses); 58 µM in [3] (Ksi,ap, HLM150, apparent, cooperative site, 95% CI in parentheses); 67 µM on CYP2E1 [6]. Moreover, the Mechanism entry on CYP2E1 [6] was “Mixed cooperative substrate”.
In the case of `OCC(O)c1ccccc1` (racemic) [R/S-Styrene glycol, (R/S)-1,2-phenylethanediol], the Mechanism result (at CYP2E1 [1]; in series [12]) was “Competitive” in each case. In addition, the “Ki,ap” value is 29 000 (19 000–52 000) μM at CYP2E1 [1] (recombinant enzyme) and 17 000 (15 000–19 000) μM in series [12]. Also, the activity at 30 min came out at 18% at CYP2E1 [2] and 9.2% at CYP2E1 [5]. For the same compound, the IC50 in series [11] was 13 000 (2800–23 000) μM; in series [13], 14 000 (6600–21 000) μM.
